Measured values taken from patent publication US6407227B1, “Process for the crystallization of lactitol” (Xyrofin Oy, priority 1997, dated 2002).
Each block holds one compound with its values, some of them ahead of it.

Assays:
[1] = Solubility Test 1: equilibrium solubility of lactitol crystals in water; format: physicochemical
Protocol: The determination of the solubility and stability of lactitol crystals in water was made as follows:
The lactitol, which was used in the tests, was high grade lactitol monohydrate Lactitol MC (batch 21769) manufactured by Xyrofin OY, Finland according to EP Patent 0456636. This monohydrate was also used as seed crystals. When lactitol dihydrate was studied at 45° C. and 55 ° C., lactitol dihydrate produced at the applicant's research laboratory Dec. 20, 1994 (crystallization No. 3) was used both for solution and as seed crystals. […] The water, which was used, was distilled water.
At 35° C. the supersaturation was 10 g/100 g. […] The solutions were made by dissolving the monohydrate into water at a temperature above the solubility temperature. The solutions which were used at 65° C. and 75° C. were made by evaporating with a vacuum rotating flask evaporator. The concentrations were determined by refractometric indexes (RI). At the temperatures of 5° C., 10° C. and 15° C. the solutions were made in a 2-liter jacketed vessel. The other solutions were made in 200 ml or 250 ml measurement bottles.
When the lactitol had dissolved, the solution was cooled to the test temperature. The solution was seeded with softly crushed monohydrate crystals (2 tests with dihydrate crystals). In the measurement bottles the solutions were stirred with a magnetic stirrer and in the jacketed vessel with a motor driven mixer.
The crystallization of lactitol and the equilibration of the solution was monitored by measuring the refractometric index (RI) of the mother liquid. Before taking a sample, the crystals were allowed settle on the bottom of the vessel, so that the measurement of the RI would be as exact as possible. […] Thus, the RI of the mother liquid was measured from a suspension of crystals and solution. At the end point of the measurement the waiting time was so long that the mother liquid was clearly separated and after that the RI of the mother liquid was measured. The RIs were measured below 55° C. with an Index Instruments GPR-11-37 refractometer and above 55° C. with a Zeiβ refractometer, both of which were calibrated.
The equilibration of the solution was generally monitored for 7 . . . 14 days, but only for 3 days, when dihydrate was used as seed crystals. […] 150° C. and reading accuracy of 0.2° C. The accuracy of this thermometer was checked against a calibrated thermometer.
After the crystal suspension had reached equilibrium, the crystals were separated by centrifuging 15 min 5000 rpm using a thick cloth. One part of the crystals was dried at 60° C. in a drying cabinet over a night. The water contents of both undried and dried crystals were analyzed by the Karl Fischer method or by a coulometric Karl Fischer method. Furthermore, melting behaviors were analyzed.
The final solubilities at the studied temperatures are shown in Tables 2 and 3 in addition to the crystal forms. The crystal form was concluded from the water contents of the undried crystals and from the melting ranges. The water contents are shown in Tables 4 and 5 and melting behaviors in Table 6.

[2] = Linear curve fittings of the solubility points and stability areas from intersections of solubility curves; format: physicochemical; settings: for solubility line s as function of temperature t (linear fitting): t in ° C., s = weight of lactitol/(weight of lactitol+weight of water)×100%, between 100 and 0 ° C.
From the text: The solubility data of Table 2 was combined with some earlier solubility measurement data. The curve fittings of the solubility points were made as linear fittings, when % by weight is used as a concentration unit. […] The fittings were made with the aid of the spread sheet program Excel 5.0^R. The solubility equations of the different hydrate forms are shown in Equations (I) to (IV): [formula]
The fitting of the trihydrate cannot be considered absolutely exact because only three measurement points were used for fitting: one exact point, one uncertain point and one calculatory point.
The solubility points and the curve fittings are shown in a graph in FIG. 1. […] From the intersections of solubility curves it is possible to conclude the stability areas of the different lactitol forms.

- Solubility ([1]; 10.2 ° C., lactitol monohydrate used as seed crystals): 45.7 g/100 g
- Solubility ([1]; 15.0 ° C., lactitol monohydrate used as seed crystals): 48.8 g/100 g
- Solubility ([1]; 25.6 ° C., lactitol monohydrate used as seed crystals): 56.3 g/100 g
- Solubility ([1]; 35.0 ° C., lactitol monohydrate used as seed crystals): 61.7 g/100 g
- Solubility ([1]; 45.0 ° C., lactitol dihydrate used as seed crystals): 69.1 g/100 g
- solubility line s as function of temperature t (linear fitting) ([2]; dihydrate): 39.7+0.6332t
Structure (SMILES): OC[C@@H](O)[C@@H](O[C@@H]1O[C@H](CO)[C@H](O)[C@H](O)[C@H]1O)[C@H](O)[C@@H](O)CO [dihydrate, lactitol dihydrate]

- Solubility ([1]; 54.7 ° C., lactitol dihydrate used as seed crystals): 73.4 g/100 g
- Solubility ([1]; 55.0 ° C., lactitol monohydrate used as seed crystals): 75.2 g/100 g
- Solubility ([1]; 65.0 ° C., lactitol monohydrate used as seed crystals): 79.6 g/100 g
- solubility line s as function of temperature t (linear fitting) ([2]; monohydrate): 50.2+0.4346t
Structure (SMILES): OC[C@@H](O)[C@@H](O[C@@H]1O[C@H](CO)[C@H](O)[C@H](O)[C@H]1O)[C@H](O)[C@@H](O)CO [monohydrate, lactitol monohydrate]

- Solubility ([1]; 5.1 ° C., lactitol monohydrate used as seed crystals): 42.3 g/100 g
- stability area (temperature) ([2]; in water, from the intersections of solubility curves, trihydrate): < 12 °C
- solubility line s as function of temperature t (linear fitting) ([2]; trihydrate): 33.4+1.1482t
Structure (SMILES): OC[C@@H](O)[C@@H](O[C@@H]1O[C@H](CO)[C@H](O)[C@H](O)[C@H]1O)[C@H](O)[C@@H](O)CO [trihydrate, lactitol trihydrate]
